Test results as given in patent US20230147993A1, “THIOPHENE COMPOUNDS WITH CYCLIC AMIDES, AND USES THEREOF” (Capulus Therapeutics, LLC, priority 2019, published 2023).

Tests used:
[1] = Stability in human liver microsomes; type: in vitro ADME; details: 60 min at 37° C., NADPH
Procedure: (§1) Half-life Human Microsomes: Compounds were evaluated for stability in human liver microsomes. A 10 mM stock solution of the compound being evaluated was prepared in DMSO and diluted with water:acetonitrile (1:1) to a concentration of 1 mM. A working concentration of 100 μM was prepared by further dilution with water:acetonitrile (1:1). To make the preincubation mixture, 2.5 μL of the diluted compound was combined with 75 μL of human liver microsomes at 3.33 mg/mL, and 85 μL of 100 mM potassium phosphate buffer, and this mixture was pre-incubated for 10 min at 37° C. To make the 60 minute mixture without cofactor, 32.5 μL of the preincubation mixture was combined with 17.5 μL of 100 mM potassium phosphate buffer and incubated for 60 min at 37° C. To make the 0 min sample with cofactor (NADPH), 16.25 μL of the preincubation mixture was combined with 200 μL of acetonitrile containing internal standard and 8.75 μL of cofactor (NADPH). To make the incubation mixture, 62 μL of cofactor (2.85 mM) was combined with the remaining incubation mixture, and incubated for 60 min at 37° C. To prepare the sample mixture to be evaluated, 25 μL incubation mixture was combined with 200 μL of acetonitrile containing internal standard and vortexed for 5 min at 1200 rpm, then centrifuged for 10 min at 4000 rpm. The supernatant was diluted 2 fold with water and injected on LC-MS/MS. The sample mixture was evaluated by LC-MS/MS using 10 mM ammonium acetate with 0.1% FA as the aqueous mobile phase, and methanol as the organic mobile phase.

[2] = system: ACACA; test: Gene expression in HepG2 cells (qPCR), ACACA; type: cell-based; details: for 48 hours, normalized to β-Actin, relative to mock or vehicle treated cells (ΔΔCT)
Procedure: Gene Expression: The effect of selected compounds on the gene expression of HepG2 cells was evaluated. HepG2 cells (P2) were seeded in 24 well plate (80,000 cells/well) for RNA extraction and in a 96 well plate (10,000 cells/well) for Cell Titer Glow (CTG). The media used was DMEM and contained 10% FBS. Each compound was evaluated at […] for 48 hours. Two biological replicates per experimental group were evaluated for RNA. For gene analysis, RNA was harvested with RNEasy kit and 20-100 ng used to synthesize cDNA with random primers. Quantitative PCR was performed on 1 pg to 100 ng cDNA for the following genes: ACACA, ACLY, FASN, LSS, PNPLA3. Gene expression levels were normalized with housekeeping gene, β-Actin, and relative expression levels determined using ΔΔCT method comparing treated to mock or vehicle treated cells as a baseline. “Total” gene expression refers to the average of the values of the 5 genes listed above.

[3] = system: SREBP; test: Reporter Screening Assay (SRE-luciferase reporter, HepG2); type: cell-based; details: Homo sapiens, SREBPv1 Reporter cell line HepG2, 24 hours, 0.01 uM to 10 uM, read-out: I: Reporter Screening Assay (Ave EC50 (nM))
Procedure: Reporter Screening Assay: This assay was used to evaluate the effect on transcriptional activity SREBP of selected compounds using an SRE-luciferase reporter construct. On day 1, 10,000 cells were seeded in a 96 well (white) plate as per the plate map in Growth media without antibiotics. Cells were incubated at 37° C. for 8 hours. After 8 hours, cells were washed with DPBS for complete removal of FBS. DPBS was completely removed and Growth media was replaced with phenol free treatment medium (90 μl) with different FBS concentrations. The cells were then incubated at 37° C. for 24 hours with varying doses (0.01 uM to 10 uM) of compounds. Then a Luciferase assay was performed.
Reagents for performing Luciferase assay were stored at −20° C. To a tube of lyophilized assay substrate was added 1 mL Substrate Solvent and mixed well. The Substrate tube after reconstitution was covered with aluminum foil so as to keep it protected from light. The assay buffer was thawed to room temperature. To 20 mL Assay Buffer was added 200 µL of reconstituted 100× Substrate and mixed well. The reconstituted substrate as well as the assay solution (buffer + substrate) was protected from light throughout the procedure by keeping it covered with aluminum foil. Using a multi-channel pipette, 100 μL Assay Solution (buffer + substrate) was added directly to each sample well in Plate 1, which was incubated for 30 min (plate was covered with aluminum foil). After 30 min incubation, the plate was read for total luminescence. Each well was read for 2 seconds in a plate luminometer. (Microplate reader Envision Microplate reader from Perkin Elmer). Precaution was taken to incubate plate exactly for 30 min prior to reading on the plate reader.
Reporter Assay Materials: SREBPv1 Reporter cell line: HepG2-#32251. Growth Medium: MEM (Corning 10-010), 10% FBS, 1% GlutaMax (Invitrogen Catalog #35050061), […] (Invitrogen Catalog #A1113803) and 1% Penicillin-Streptomycin (Pen-Strep). Treatment Media: Phenol-free MEM (Invitrogen Catalog #51200-038) and 1% GlutaMax (Invitrogen Catalog #35050061). Luciferase Assay: LightSwitch Luciferase Assay Kit (Catalog #32032). LDH assay: Pierce LDH Cytotoxicity Assay Kit (Catalog #SD249616).

[4] = Stability in mouse liver microsomes; type: in vitro ADME
Procedure: as §1
Half-life Mouse Microsomes: Compounds were evaluated in mouse liver microsomes following a similar procedure as described above for human liver microsomes. A similar procedure could be used to evaluate compounds in rat liver microsomes.

Row | SMILES | percent remaining after 60 min in human liver microsomes [1] | A: ACACA, effect of compounds on gene expression of HepG2 cells [2] | EC50 [3] | percent remaining after 60 min in mouse liver microsomes [4]
1 | O=C(c1ccc(-c2cc(-c3ccnc(OC4CC4)c3)cs2)c(Cl)c1)N1CCC(O)CC1 [Compound I-1629059, (3-chloro-4-(4-(2-cyclopropoxypyridin-4-yl)thiophen-2-yl)phenyl)(4-hydroxypiperidin-1-yl)methanone] | +++ (≥60.1 = +++) | ++ (0.31-0.7509 = ++) | < 249 nM | +++ (≥60.1 = +++)
2 | O=C(c1ccc(-c2cc(-c3ccnc4c3OCCO4)cs2)c(Cl)c1)N1CCC(O)CC1 [Compound I-1629066, (3-chloro-4-(4-(2,3-dihydro-[1,4]dioxino[2,3-b]pyridin-8-yl)thiophen-2-yl)phenyl)(4-hydroxypiperidin-1-yl)methanone] | ++ (30.1-60 = ++) | ++ (0.31-0.7509 = ++) | < 249 nM | ++ (30.1-60 = ++)
3 | O=C(c1ccc(-c2cc(-c3ccnc4c3OCCN4)cs2)c(Cl)c1)N1CCC(O)CC1 [Compound I-1629067, (3-chloro-4-(4-(3,4-dihydro-2H-pyrido[3,2-b][1,4]oxazin-8-yl)thiophen-2-yl)phenyl)(4-hydroxypiperidin-1-yl)methanone] | + (0-30 = +) | ++ (0.31-0.7509 = ++) | < 249 nM | + (0-30 = +)
4 | O=C(c1ccc(-c2cc(-c3ccnc4c3NCCN4)cs2)c(Cl)c1)N1CCC(O)CC1 [Compound I-1629068, (3-chloro-4-(4-(l,2,3,4-tetrahydropyrido[2,3-b]pyrazin-8-yl)thiophen-2-yl)phenyl)(4-hydroxypiperidin-1-yl)methanone] | ++ (30.1-60 = ++) | ++ (0.31-0.7509 = ++) | < 249 nM | + (0-30 = +)
5 | CC1(O)CCN(C(=O)c2ccc(-c3cc(-c4ccnc(C5(CO)CC5)c4)cs3)c(Cl)c2)CC1 [Compound I-1629069, (3-chloro-4-(4-(2-(l-(hydroxymethyl)cyclopropyl)pyridin-4-yl)thiophen-2-yl)phenyl)(4-hydroxy-4-methylpiperidin-1-yl)methanone] | + (0-30 = +) | + (>0.751 = +) | > 500 nM | + (0-30 = +)
6 | O=C(c1ccc(-c2cc(-c3ccnc(C4(O)CCC4)c3)cs2)c(Cl)c1)N1CCC(O)CC1 [Compound I-1629076, (3-chloro-4-(4-(2-(1-hydroxycyclobutyl)pyridin-4-yl)thiophen-2-yl)phenyl)(4-hydroxypiperidin-1-yl)methanone] | +++ (≥60.1 = +++) | ++ (0.31-0.7509 = ++) | < 249 nM | +++ (≥60.1 = +++)
7 | O=C(c1ccc(-c2cc(-c3ccnc(CC4(O)CCC4)c3)cs2)c(Cl)c1)N1CCC(O)CC1 [Compound I-1629077, (3-chloro-4-(4-(2-((1-hydroxycyclobutyl)methyl)pyridin-4-yl)thiophen-2-yl)phenyl)(4-hydroxypiperidin-1-yl)methanone] | + (0-30 = +) | ++ (0.31-0.7509 = ++) | < 249 nM | ++ (30.1-60 = ++)
8 | O=C(c1ccc(-c2cc(-c3ccnc(CC4(F)CCC4)c3)cs2)c(Cl)c1)N1CCC(O)CC1 [Compound I-1629078, (3-chloro-4-(4-(2-((1-fluorocyclobutyl)methyl)pyridin-4-yl)thiophen-2-yl)phenyl)(4-hydroxypiperidin-1-yl)methanone] | + (0-30 = +) | ++ (0.31-0.7509 = ++) | < 249 nM | +++ (≥60.1 = +++)
9 | O=C(c1ccc(-c2cc(-c3ccnc(C4(O)COC4)c3)cs2)c(Cl)c1)N1CCC(O)CC1 [Compound I-1629083, (3-chloro-4-(4-(2-(3-hydroxyoxetan-3-yl)pyridin-4-yl)thiophen-2-yl)phenyl)(4-hydroxypiperidin-1-yl)methanone] | +++ (≥60.1 = +++) | + (>0.751 = +) | 250 to 500 nM | +++ (≥60.1 = +++)
10 | O=C(c1ccc(-c2cc(-c3ccnc4c3NCCO4)cs2)c(Cl)c1)N1CCC(O)CC1 [Compound I-1629084, (3-chloro-4-(4-(2,3-dihydro-1H-pyrido[2,3-b][l,4]oxazin-8-yl)thiophen-2-yl)phenyl)(4-hydroxypiperidin-1-yl)methanone] | + (0-30 = +) | ++ (0.31-0.7509 = ++) | < 249 nM | ++ (30.1-60 = ++)
